Test results as given in patent publication US20250109140A1, “5-[5-(PIPERIDIN-4-YL)THIENO[3,2-C]PYRAZOL-2-YL]INDAZOLE DERIVATIVES AND RELATED COMPOUNDS AS MODULATORS FOR SPLICING NUCLEIC ACIDS AND FOR THE TREATMENT OF PROLIFERATIVE DISEASES” (REMIX THERAPUTICS INC., priority 2022, published 2025).
Read-outs that look alike come from different tables or passages of the source.

Experiments:
HTT mRNA = assay: Splicing RT-qPCR assay, HTT canonical (CJ) and alternative (AJ) junction mRNA; type: cell-based; conditions: Homo sapiens; for EC50: AC50 = 50% response in AJ mRNA increase
Summary of the method: (§1)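 A673/K562; 11-pt 3-fold dil., top 10 uM final, ≤0.25% DMSO; 24 h, 37 °C, 5% CO2. Lysis, then RT-qPCR of CJ/AJ isoforms, ≥duplicate. ΔCt vs housekeeper (GAPDH/GUSB/PPIA), ΔΔCt vs DMSO, RQ = 2^(−ΔΔCt), expressed as % response.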

MYB mRNA = assay: Splicing RT-qPCR assay, MYB canonical (CJ) and alternative (AJ) junction mRNA; type: cell-based; conditions: Homo sapiens; for EC50: AC50 = 50% response in AJ mRNA increase
Summary of the method: as §1

SMN2 mRNA = assay: Splicing RT-qPCR gene panel, SMN2 canonical junction (CJ) mRNA; type: cell-based; conditions: Homo sapiens; Table 8; larger gene panel, decrease in CJ mRNA levels
Summary of the method: as §1

Target C mRNA = assay: Splicing RT-qPCR gene panel, Target C canonical junction (CJ) mRNA; type: cell-based; conditions: Homo sapiens; Table 8; larger gene panel, decrease in CJ mRNA levels
Summary of the method: as §1

HiBiT-tagged MYB protein = assay: HiBiT protein abundance assay, MYB (K562 HiBiT knock-in cells); type: cell-based, human; conditions: 24 hours treatment
Summary of the method: (§2)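 Luminescence from the Nano-Glo HiBiT lytic reagent measured tagged protein remaining in knock-in K562 cells after 24 h compound exposure (top dose 10 µM final, 3-fold, 10 points). Responses normalized between parental K562 and DMSO-treated lines were fit by four-parameter logistic to interpolate the 50% concentration.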

HiBiT-tagged HTT protein = assay: HiBiT protein abundance assay, HTT (K562 HiBiT knock-in cells); type: cell-based, human; conditions: 24 hours treatment
Summary of the method: as §2

[1] = tested on: K562 (human chronic myelogenous leukemia) cells; assay: Cell viability, Cell Titer Glo 2.0 assay, K562 cells; type: cell-based; conditions: 72 hours
Summary of the method: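 Luminescent Cell Titer Glo 2.0 readout after 72 h exposure (37° C, 5% CO2), medium-only wells as blank. Cells plated 500/well in IMDM with 10% FBS; test compounds diluted from DMSO series 1:100 into medium, 0.1% DMSO final.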

Target C = assay: HiBiT protein abundance assay, Target C (K562 HiBiT knock-in cells); type: cell-based, human; conditions: 24 hours treatment
Summary of the method: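 The readout was Nano-Glo HiBiT lytic luminescence after 24 h compound exposure at 37 °C, in 10000 K562 knock-in cells/well. Compounds ran as 10-point, 3-fold series, top final […], ≤0.25% DMSO. Responses were scaled between parental K562 and DMSO-treated controls, and IC50 was interpolated at 50% from four-parameter logistic curves.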

[2] = Table 7, RT-qPCR, A673 or K562 cells, 24 hours treatment
[3] = Table 7, IC50 = 50% response in CJ mRNA decrease, RT-qPCR, A673 or K562 cells, 24 hours treatment, read-out: HTT CJ
[4] = Table 8, larger gene panel, decrease in CJ mRNA levels, read-out: HTT CJ IC50
[5] = Table 7, IC50 = 50% response in CJ mRNA decrease, RT-qPCR, A673 or K562 cells, 24 hours treatment, read-out: MYB CJ
[6] = Table 8, larger gene panel, decrease in CJ mRNA levels, read-out: MYB CJ IC50

For `Cc1cn2cc(-n3cc4sc(C5CCNCC5)cc4n3)ncc2n1` [Compound 169], the EC50 (HTT mRNA; [2]) was 1000 to 10000 nM, the IC50 (HTT mRNA; [3]) was 1000 to 10000 nM and the IC50 (HTT mRNA; [4]) was 1000 to 10000 nM. It also gave an EC50 (MYB mRNA; [2]) of 1000 to 10000 nM, an IC50 (MYB mRNA; [5]) of 1000 to 10000 nM and an IC50 (MYB mRNA; [6]) of 1000 to 10000 nM. It also gave an IC50 (SMN2 mRNA) of 1000 to 10000 nM, an IC50 (Target C mRNA) of 1000 to 10000 nM and an IC50 (HiBiT-tagged MYB protein) of 1000 to 10000 nM. The IC50 (HiBiT-tagged HTT protein) was 1000 to 10000 nM, the IC50 [1] was 1000 to 10000 nM and the IC50 (Target C) was 1000 to 10000 nM.

For `Cc1nc2c(F)cc(-n3cc4sc(C5CCNCC5)cc4n3)cc2s1` [Compound 168], the EC50 (HTT mRNA; [2]) was 1000 to 10000 nM, the IC50 (HTT mRNA; [3]) was 1000 to 10000 nM and the IC50 (HTT mRNA; [4]) was 1000 to 10000 nM. For the same molecule, the EC50 (MYB mRNA; [2]) was 1000 to 10000 nM, the IC50 (MYB mRNA; [5]) was > 10000 nM and the IC50 (MYB mRNA; [6]) was 1000 to 10000 nM. The IC50 (SMN2 mRNA) was 100 to 1000 nM, the IC50 (Target C mRNA) was > 10000 nM and the IC50 (HiBiT-tagged MYB protein) was 1000 to 10000 nM. The IC50 (HiBiT-tagged HTT protein) was 1000 to 10000 nM, the IC50 [1] was 1000 to 10000 nM and the IC50 (Target C) was 1000 to 10000 nM.

In the case of `Cn1cc2cc(-c3nc4cn(C5CCNCC5)nc4s3)c(O)c(F)c2n1` [Compound 1107], the EC50 (HTT mRNA; [2]) is reported as 100 to 1000 nM, the IC50 (HTT mRNA; [3]) is reported as 100 to 1000 nM and the IC50 (HTT mRNA; [4]) is reported as 100 to 1000 nM. It also gave an EC50 (MYB mRNA; [2]) of 100 to 1000 nM, an IC50 (MYB mRNA; [5]) of 100 to 1000 nM and an IC50 (MYB mRNA; [6]) of 100 to 1000 nM. The IC50 (SMN2 mRNA) was < 100 nM, the IC50 (Target C mRNA) was 100 to 1000 nM and the IC50 (HiBiT-tagged MYB protein) was 1000 to 10000 nM. For the same molecule, the IC50 (HiBiT-tagged HTT protein) was 100 to 1000 nM, the IC50 [1] was 1000 to 10000 nM and the IC50 (Target C) was 100 to 1000 nM.
